Laboratory results published in ChEMBL document CHEMBL5614417, “Discovery of AMPs from random peptides via deep learning-based model and biological activity validation” (Eur J Med Chem, 2024).
Activity calls are given as the source filed them. Where a SMILES comes first, the peptide text is derived from it.

Tests used:
[1] = tested on: Staphylococcus aureus; assay: Induction of resistance development against Staphylococcus aureus assessed as fold increase in MIC after 21 passages; format: functional
[2] = tested on: Acinetobacter baumannii; assay: Antibacterial activity against multidrug resistant Acinetobacter baumannii 4 incubated for 18 hrs by visual inspection method; format: functional
[3] = tested on: Erythrocyte; assay: Hemolytic activity in rat erythrocytes incubated for 1 hr; format: toxicity, cell-based
[4] = tested on: Cell membrane; assay: Induction of cell membrane damage in Staphylococcus aureus assessed as change in morphology by measuring numerous blebs covered membrane at 4 times MIC incubated for 5 hrs by SEM analysis; format: cell membranes
[5] = tested on: Staphylococcus aureus; assay: Antibacterial activity against methicillin resistant Staphylococcus aureus 4 incubated for 18 hrs by visual inspection method; format: functional
[6] = tested on: Staphylococcus epidermidis; assay: Antibacterial activity against Staphylococcus epidermidis ATCC 12228 incubated for 18 hrs by visual inspection method; format: functional
[7] = tested on: Cell membrane; assay: Induction of cell membrane damage in Escherichia coli assessed as change in morphology by measuring deformed membrane at 4 times MIC incubated for 5 hrs by SEM analysis; format: cell membranes
[8] = tested on: Acinetobacter baumannii; assay: Antibacterial activity against multidrug resistant Acinetobacter baumannii 2 incubated for 18 hrs by visual inspection method; format: functional
[9] = tested on: Staphylococcus aureus; assay: Antibacterial activity against Staphylococcus aureus ATCC 25923 incubated for 18 hrs in presence of 100 mM NaCl by visual inspection method; format: functional
[10] = tested on: Staphylococcus aureus; assay: Antibacterial activity against Staphylococcus aureus ATCC 25923 incubated for 18 hrs in presence of 150 mM NaCl by visual inspection method; format: functional
[11] = tested on: Acinetobacter baumannii; assay: Antibacterial activity against multidrug resistant Acinetobacter baumannii 3 incubated for 18 hrs by visual inspection method; format: functional
[12] = tested on: Cell membrane; assay: Disruption of outer membrane integrity in Escherichia coli assessed as increase in fluorescence intensity by measuring NPN uptake measured every min for 15 mins by fluorescence based analysis; format: cell membranes
[13] = tested on: Escherichia coli; assay: Antibacterial activity against Escherichia coli ATCC 25922 incubated for 18 hrs in presence of 50 mM NaCl by visual inspection method; format: functional
[14] = tested on: Staphylococcus aureus; assay: Antibacterial activity against Staphylococcus aureus ATCC 25923 incubated for 18 hrs by visual inspection method; format: functional
[15] = tested on: Escherichia coli; assay: Antibacterial activity against ESBL Escherichia coli 4 incubated for 18 hrs by visual inspection method; format: functional
[16] = tested on: Erythrocyte; assay: Hemolytic activity in rat erythrocytes at 250 ug/ml incubated for 1 hr; format: toxicity, cell-based; conditions: dose 250 µg/ml
[17] = Stability in Sprague-Dawley rat serum at 62.5 ug/ml measured upto 480 mins by RP-HPLC method; format: ADME, cell-free; conditions: 8 h, at 62.5 µg/mL
[18] = tested on: Cell membrane; assay: Induction of cell membrane damage in Escherichia coli assessed as change in morphology by measuring numerous blebs covered membrane at 4 times MIC incubated for 5 hrs by SEM analysis; format: cell membranes
[19] = tested on: Cell membrane; assay: Induction of inner membrane permeability in Escherichia coli ML-35 measured every 5 mins for 90 mins by ONPG dye based assay; format: cell membranes
[20] = tested on: Cell membrane; assay: Disruption of outer membrane integrity in Escherichia coli assessed as increase in fluorescence intensity by measuring NPN uptake at 1 to 4 times MIC by fluorescence based analysis; format: cell membranes; conditions: TDE = time-dependent effect
[21] = tested on: Acinetobacter baumannii; assay: Antibacterial activity against multidrug resistant Acinetobacter baumannii 5 incubated for 18 hrs by visual inspection method; format: functional
[22] = tested on: Staphylococcus aureus; assay: Antibacterial activity against methicillin resistant Staphylococcus aureus 3 incubated for 18 hrs by visual inspection method; format: functional
[23] = tested on: Klebsiella pneumoniae; assay: Antibacterial activity against Klebsiella pneumoniae ATCC 700603 incubated for 18 hrs by visual inspection method; format: functional
[24] = tested on: Escherichia coli; assay: Antibacterial activity against ESBL Escherichia coli 3 incubated for 18 hrs by visual inspection method; format: functional
[25] = tested on: Acinetobacter baumannii; assay: Antibacterial activity against Acinetobacter baumannii ATCC 19606 incubated for 18 hrs by visual inspection method; format: functional
[26] = tested on: Staphylococcus aureus; assay: Antibacterial activity against methicillin resistant Staphylococcus aureus 1 incubated for 18 hrs by visual inspection method; format: functional
[27] = tested on: Staphylococcus aureus; assay: Antibacterial activity against Staphylococcus aureus ATCC 25923 incubated for 18 hrs in presence of 50 mM NaCl by visual inspection method; format: functional
[28] = tested on: Acinetobacter baumannii; assay: Antibacterial activity against multidrug resistant Acinetobacter baumannii 1 incubated for 18 hrs by visual inspection method; format: functional
[29] = tested on: Cell membrane; assay: Induction of inner membrane permeability in Escherichia coli ML-35 at 1 to 4 times MIC by ONPG dye based assay; format: cell membranes; conditions: TDE = time-dependent effect
[30] = tested on: Cell membrane; assay: Induction of cell membrane damage in Staphylococcus aureus assessed as decrease in red/green fluorescence ratio at 2 times MIC by DiOC2(3) fluorescent probe based assay; format: cell membranes
[31] = tested on: Cell membrane; assay: Induction of cell membrane damage in Staphylococcus aureus assessed as decrease in red/green fluorescence ratio by DiOC2(3) fluorescent probe based assay; format: cell membranes
[32] = tested on: Bacillus subtilis; assay: Antibacterial activity against Bacillus subtilis ATCC 23857 incubated for 18 hrs by visual inspection method; format: functional
[33] = tested on: Cell membrane; assay: Induction of cell membrane damage in Escherichia coli at 4 times MIC incubated for 30 mins by PI staining based confocal laser scanning microscopic analysis; format: cell membranes
[34] = tested on: Cell membrane; assay: Induction of cell membrane damage in Staphylococcus aureus at 4 times MIC incubated for 30 mins by PI staining based confocal laser scanning microscopic analysis; format: cell membranes
[35] = tested on: Staphylococcus aureus; assay: Antibacterial activity against methicillin resistant Staphylococcus aureus 2 incubated for 18 hrs by visual inspection method; format: functional
[36] = tested on: Escherichia coli; assay: Antibacterial activity against ESBL Escherichia coli 2 incubated for 18 hrs by visual inspection method; format: functional
[37] = tested on: Escherichia coli; assay: Antibacterial activity against ESBL Escherichia coli 5 incubated for 18 hrs by visual inspection method; format: functional
[38] = tested on: Cell membrane; assay: Induction of cell membrane damage in Staphylococcus aureus assessed as change in morphology by measuring roughened membrane at 4 times MIC incubated for 5 hrs by SEM analysis; format: cell membranes
[39] = tested on: Escherichia coli; assay: Antibacterial activity against Escherichia coli ATCC 25922 incubated for 18 hrs in presence of 100 mM NaCl by visual inspection method; format: functional
[40] = Hemolytic activity in rat erythrocytes at 1000 ug/ml incubated for 1 hr; format: toxicity, cell-based, Erythrocyte; conditions: at 1000 µg/mL, read-out: Activity
[41] = tested on: Cell membrane; assay: Induction of cell membrane damage in Staphylococcus aureus assessed as change in morphology by measuring deformed membrane at 4 times MIC incubated for 5 hrs by SEM analysis; format: cell membranes
[42] = tested on: Escherichia coli; assay: Antibacterial activity against ESBL Escherichia coli 1 incubated for 18 hrs by visual inspection method; format: functional
[43] = tested on: Escherichia coli; assay: Antibacterial activity against Escherichia coli ATCC 25922 incubated for 18 hrs by visual inspection method; format: functional
[44] = tested on: Cell membrane; assay: Induction of cell membrane damage in Escherichia coli assessed as change in morphology by measuring roughened membrane at 4 times MIC incubated for 5 hrs by SEM analysis; format: cell membranes
[45] = tested on: Erythrocyte; assay: Hemolytic activity in rat erythrocytes at 500 to 1000 ug/ml incubated for 1 hr; format: toxicity, cell-based; conditions: dose 500-1000 µg/ml
[46] = tested on: Escherichia coli; assay: Antibacterial activity against Escherichia coli ATCC 25922 incubated for 18 hrs in presence of 150 mM NaCl by visual inspection method; format: functional
[47] = tested on: Staphylococcus aureus; assay: Antibacterial activity against Staphylococcus aureus infected in BALB/c mouse at 10 mg/kg administered every 4 hrs for 3 doses and measured after 4 hrs post last dose; format: functional, organism-based; conditions: time 16.0 hrs

O=C(O)c1cn(C2CC2)c2cc(N3CCNCC3)c(F)cc2c1=O
16: fold change (FC) [1]

CC[C@H](C)[C@H](NC(=O)[C@@H](N)CCCNC(=N)N)C(=O)NCC(=O)N[C@@H](Cc1c[nH]c2ccccc12)C(=O)N[C@@H](CS)C(=O)N[C@@H](C)C(=O)N[C@@H](Cc1c[nH]c2ccccc12)C(=O)N[C@@H](CC(C)C)C(=O)N[C@@H](CC(C)C)C(=O)N[C@@H](CCCCN)C(=O)N[C@@H](CC(N)=O)C(=O)N[C@@H](CCCCN)C(=O)N[C@@H](C)C(N)=O (H-RIGWCAWLLKNKA-NH2)
15 µg/mL: MIC [2] | MIC [6] | MIC [8] | MIC [11] | MIC [21] | MIC [25] | MIC [28] | MIC [32]
Unstable: Stability [17]
779.41 µg/mL: HC5 [3]
8.18%: hemolysis at 1 h, 1000 ug/ml [40]
active: Activity [4] | Activity [7] | Activity [12] Dose-Dependent Effect | Activity [18] | Activity [19] Dose-Dependent Effect | Activity [20] Tde | Activity [29] Tde | Activity [30] | Activity [31] Dose-Dependent Effect | Activity [33] | Activity [34] | Activity [38] | Activity [41] | Activity [44]
Non-Toxic: Activity [16]
30 µg/mL: MIC [13] | MIC [15] | MIC [24] | MIC [36] | MIC [37] | MIC [39] | MIC [42] | MIC [43] | MIC [46]
Toxic: Activity [45]
60 µg/mL: MIC [5] | MIC [9] | MIC [10] | MIC [14] | MIC [22] | MIC [23] | MIC [26] | MIC [27] | MIC [35]

CC[C@H](C)[C@H](NC(=O)[C@H](Cc1c[nH]c2ccccc12)NC(=O)CNC(=O)[C@H](CCC(N)=O)NC(=O)[C@@H](N)CCCNC(=N)N)C(=O)N[C@@H](Cc1c[nH]c2ccccc12)C(=O)N[C@@H](Cc1ccc(O)cc1)C(=O)NCC(=O)N[C@@H](Cc1ccccc1)C(=O)N[C@@H](Cc1ccccc1)C(=O)N[C@@H](Cc1c[nH]c2ccccc12)C(=O)N[C@@H](CCCCN)C(=O)N[C@@H](CCCCN)C(N)=O (H-RQGWIWYGFFWKK-NH2)
560.73 µg/mL: HC5 [3]
30 µg/mL: MIC [13] | MIC [15] | MIC [24] | MIC [36] | MIC [37] | MIC [39] | MIC [42] | MIC [43] | MIC [46]
7.5 µg/mL: MIC [5] | MIC [9] | MIC [10] | MIC [14] | MIC [22] | MIC [26] | MIC [27] | MIC [32] | MIC [35]
3.75 µg/mL: MIC [6]
60 µg/mL: MIC [23]
7.47%: hemolysis at 1 h, 1000 ug/ml [40]
Toxic: Activity [45]
15 µg/mL: MIC [2] | MIC [8] | MIC [11] | MIC [21] | MIC [25] | MIC [28]
Non-Toxic: Activity [16]
active: Activity [4] | Activity [7] | Activity [12] Dose-Dependent Effect | Activity [18] | Activity [19] Dose-Dependent Effect | Activity [20] Tde | Activity [29] Tde | Activity [30] | Activity [31] Dose-Dependent Effect | Activity [33] | Activity [34] | Activity [38] | Activity [41] | Activity [44]

CC[C@H](C)[C@H](NC(=O)[C@@H](N)Cc1c[nH]c2ccccc12)C(=O)N[C@@H](Cc1c[nH]c2ccccc12)C(=O)N[C@H](C(=O)N[C@@H](Cc1ccccc1)C(=O)N[C@@H](CCCCN)C(=O)N[C@@H](Cc1c[nH]cn1)C(=O)N[C@@H](CC(C)C)C(=O)NCC(=O)N[C@@H](CS)C(=O)N[C@@H](CCC(N)=O)C(=O)N[C@@H](CCCCN)C(=O)N[C@@H](CCC(N)=O)C(N)=O)[C@@H](C)O (H-WIWTFKHLGCQKQ-NH2)
> 60 µg/mL: MIC [6] | MIC [14] | MIC [23] | MIC [25] | MIC [32] | MIC [43]

CC[C@H](C)[C@H](NC(=O)[C@H](CCCNC(=N)N)NC(=O)[C@H](Cc1c[nH]c2ccccc12)NC(=O)[C@@H](NC(=O)[C@H](Cc1c[nH]cn1)NC(=O)[C@H](Cc1c[nH]c2ccccc12)NC(=O)[C@@H](N)Cc1c[nH]c2ccccc12)[C@@H](C)CC)C(=O)N[C@@H](CO)C(=O)N[C@@H](CCSC)C(=O)N[C@@H](Cc1c[nH]c2ccccc12)C(=O)N[C@@H](CCSC)C(=O)N[C@@H](CS)C(=O)NCC(N)=O (H-WWHIWRISMWMCG-NH2)
> 60 µg/mL: MIC [6] | MIC [14] | MIC [23] | MIC [25] | MIC [32] | MIC [43]

CN[C@H](CC(C)C)C(=O)N[C@H]1C(=O)N[C@@H](CC(N)=O)C(=O)N[C@H]2C(=O)N[C@H]3C(=O)N[C@H](C(=O)N[C@H](C(=O)O)c4cc(O)cc(O)c4-c4cc3ccc4O)[C@H](O)c3ccc(c(Cl)c3)Oc3cc2cc(c3O[C@@H]2O[C@H](CO)[C@@H](O)[C@H](O)[C@H]2O[C@H]2C[C@](C)(N)[C@H](O)[C@H](C)O2)Oc2ccc(cc2Cl)[C@H]1O [VANCOMYCIN]
active: Activity [47]
0.94 µg/mL: MIC [5] | MIC [6] | MIC [14] | MIC [22] | MIC [26] | MIC [32] | MIC [35]

POLYMYXIN B
1.88 µg/mL: MIC [2] | MIC [8] | MIC [11] | MIC [15] | MIC [21] | MIC [23] | MIC [24] | MIC [25] | MIC [28] | MIC [36] | MIC [37] | MIC [42] | MIC [43]
